Measurements as given in patent publication US20190192699A1, “NUCLEAR IMAGING AND RADIOTHERAPEUTICS AGENTS TARGETING CARBONIC ANHYDRASE IX AND USES THEREOF” (THE JOHNS HOPKINS UNIVERSITY, priority 2016, published 2019).
Where “and” joins values, the source holds several entries; their conditions need not be identical. Equal entries are not always repeated. Entries after “also recorded” stand apart in the source; their conditions may differ.

Tests used:
[1] = test system: SK-RC-52 xenografts; assay: Biodistribution of [64Cu]XYIMSR-06; format: in vivo, mice
Method: (§1) Cell Lines and Mouse Models. Animal experiments were performed in accordance with protocols approved by the Johns Hopkins Animal Care and Use Committee (ACUC). Six-week-old female NOD/SCID mice were purchased from the Animal Resource Core of the Sidney Kimmel Comprehensive Cancer Center of Johns Hopkins and were subcutaneously injected in the lower left flank or upper right flank with 1×10^6 SK-RC-52 cells in RPMI 1640 GlutaMAX™ media (Life Technologies, Frederick, Md.) supplemented with 1% fetal bovine serum (FBS). Mice were monitored for tumor size and used for SPECT/CT imaging when the size of the tumor reached 100 mm^3.
Biodistribution of [^64Cu]XYIMSR-06. Mice bearing SK-RC-52 xenografts within the upper right flank were injected intravenously with 740 kBq (20 μCi) of [^64Cu]XYIMSR-06 in 200 μL of PBS. For in vivo competition (binding specificity) studies, tumor-bearing mice were injected with 740 kBq (20 μCi) of [^64Cu]XYIMSR-06 and 200 nmole of 1 in 200 μL of PBS concurrently. At specific times after injection (1 h, 4 h, 8 h and 24 h), mice (n=5) were sacrificed by cervical dislocation with blood immediately collected by cardiac puncture. Heart, lungs, pancreas, spleen, fat, brain, muscle, small intestines, liver, stomach, kidney, urinary bladder, and tumor were also collected. Each organ was weighed and the tissue radioactivity was measured with an automated gamma counter (1282 Compugamma CS, Pharmacia/LKBNuclear, Inc., Mt. Waverly, Vic. Australia). The percentage of injected dose per gram of tissue (% ID/g) was calculated by comparison with samples of a standard dilution of the initial dose. All measurements were corrected for radioactive decay. Data were expressed as mean±standard deviation (SD). Prism software (GraphPAD, San Diego, Calif.) was used to determine statistical significance. Statistical significance was calculated using a paired t test. P-values […] were considered significant.

[2] = test system: CAIX-expressing SK-RC-52 tumors; assay: PET/CT imaging of [64Cu]XYIMSR-06; format: in vivo, mice; settings: 22.2 MBq (600 μCi) via tail vein
Method: as §1
PET/CT imaging of [^64Cu]XYIMSR-06. Mice harboring subcutaneous SK-RC-52 tumors within the upper right flank were injected intravenously (tail vein) with 22.2 MBq (600 μCi) of [^64Cu]XYIMSR-06 in 250 μL of PBS (pH=7.0). Anesthesia was then induced with 3% isoflurane and maintained with 2% isoflurane. Physiologic temperature was maintained with an external light source while the mouse was on the gantry. Whole body, 2-bed PET/CT imaging was performed using the SuperArgus small animal PET/CT scanner (Sedecal, Madrid, Spain), […] a 250-700 keV energy window. PET acquisition times were: 5 min/bed position (1 h post-injection of [^64Cu]XYIMSR-06); 10 min/bed position (4 and 8 h) and 20 min/bed position (24 h). […]

[3] = 8 h + block (200 nmole of 1 co-injected)
[4] = 24 h + block (200 nmole of 1 co-injected)

With `CC(CCC(=O)N[C@@H](CC(=O)N[C@@H](CC(=O)N[C@@H](CCCCn1cc(CCCC(=O)Nc2nnc(S(N)(=O)=O)s2)nn1)C(=O)NCCOCCOCCNC(=S)Nc1ccc(CC2CN(CC(=O)[O-])CCN(CC(=O)[O-])CCN2CC(=O)O)cc1)C(=O)O)C(=O)O)(c1ccc(O)cc1)c1ccc(O)cc1.[64Cu+2]` (stereo partly shown) [[^64Cu]XYIMSR-06] the “Biodistribution: Bladder” value ([1]; 1 h post-injection) was 11.12 ± 6.33 % ID/g, the “Biodistribution: Blood” value ([1]; 1 h post-injection) was 0.66 ± 0.05 % ID/g and the “Biodistribution: Brain” value ([1]; 1 h post-injection) was 1.46 ± 2.23 % ID/g. For the same compound, the “Biodistribution: Fat” value ([1]; 1 h post-injection) was 0.80 ± 0.17 % ID/g, the “Biodistribution: Heart” value ([1]; 1 h post-injection) was 3.41 ± 0.79 % ID/g and the “Biodistribution: Kidney (kid)” value ([1]; 1 h post-injection) was 33.65 ± 3.91 % ID/g. For the same compound, the “Biodistribution: Liver” value ([1]; 1 h post-injection) was 3.25 ± 0.97 % ID/g, the “Biodistribution: Lung” value ([1]; 1 h post-injection) was 25.52 ± 3.35 % ID/g and the “Biodistribution: Muscle (mm)” value ([1]; 1 h post-injection) was 1.28 ± 0.27 % ID/g. For the same compound, the “Biodistribution: Pancreas” value ([1]; 1 h post-injection) was 2.94 ± 0.24 % ID/g, the “Biodistribution: Sm. intestine” value ([1]; 1 h post-injection) was 7.35 ± 0.78 % ID/g and the “Biodistribution: Spleen” value ([1]; 1 h post-injection) was 0.36 ± 0.08 % ID/g. The “Biodistribution: Stomach” value ([1]; 1 h post-injection) was 14.80 ± 2.27 % ID/g, the “Biodistribution: Tumor” value ([1]; 1 h post-injection) was 14.5 % ID/g and 14.47 ± 2.69 % ID/g and the “Tumor/kid (kidney) ratio” value ([1]; 1 h post-injection) was 0.4 ± 0.1. The “Tumor/mm (muscle) ratio” value ([1]; 1 h post-injection) was 10.8 ± 3.7, the “Biodistribution: Bladder” value ([1]; 4 h post-injection) was 17.05 ± 8.86 % ID/g and the “Biodistribution: Blood” value ([1]; 4 h post-injection) was 0.33 ± 0.06 % ID/g. The “Biodistribution: Brain” value ([1]; 4 h post-injection) was 0.29 ± 0.06 % ID/g, the “Biodistribution: Fat” value ([1]; 4 h post-injection) was 0.52 ± 0.29 % ID/g and the “Biodistribution: Heart” value ([1]; 4 h post-injection) was 1.78 ± 0.33 % ID/g. The “Biodistribution: Kidney (kid)” value ([1]; 4 h post-injection) was 19.99 ± 2.88 % ID/g, the “Biodistribution: Liver” value ([1]; 4 h post-injection) was 2.18 ± 0.57 % ID/g and the “Biodistribution: Lung” value ([1]; 4 h post-injection) was 12.03 ± 1.61 % ID/g. For the same compound, the “Biodistribution: Muscle (mm)” value ([1]; 4 h post-injection) was 0.70 ± 0.18 % ID/g, the “Biodistribution: Pancreas” value ([1]; 4 h post-injection) was 1.36 ± 0.19 % ID/g and the “Biodistribution: Sm. intestine” value ([1]; 4 h post-injection) was 4.15 ± 0.69 % ID/g. The “Biodistribution: Spleen” value ([1]; 4 h post-injection) was 0.24 ± 0.04 % ID/g, the “Biodistribution: Stomach” value ([1]; 4 h post-injection) was 8.19 ± 0.97 % ID/g and the “Biodistribution: Tumor” value ([1]; 4 h post-injection) was 19.3 % ID/g and 19.31 ± 4.51 % ID/g. For the same compound, the Tumor/Blood ratio ([1]; 4 h post-injection) was 57.7 ± 9.3, the “Tumor/kid (kidney) ratio” value ([1]; 4 h post-injection) was 1.0 ± 0.1 and the “Tumor/mm (muscle) ratio” value ([1]; 4 h post-injection) was 29.4 ± 9.9. The “Biodistribution: Bladder” value [1, 3] was 1.45 ± 1.53 % ID/g, the “Biodistribution: Blood” value [1, 3] was 0.08 ± 0.01 % ID/g and the “Biodistribution: Brain” value [1, 3] was 0.04 ± 0.01 % ID/g. For the same compound, the “Biodistribution: Fat” value [1, 3] was 0.05 ± 0.01 % ID/g, the “Biodistribution: Heart” value [1, 3] was 0.16 ± 0.03 % ID/g and the “Biodistribution: Kidney (kid)” value [1, 3] was 1.82 ± 0.39 % ID/g. For the same compound, the “Biodistribution: Liver” value [1, 3] was 0.55 ± 0.08 % ID/g, the “Biodistribution: Lung” value [1, 3] was 0.77 ± 0.14 % ID/g and the “Biodistribution: Muscle (mm)” value [1, 3] was 0.05 ± 0.02 % ID/g. The “Biodistribution: Pancreas” value [1, 3] was 0.14 ± 0.03 % ID/g, the “Biodistribution: Sm. intestine” value [1, 3] was 0.38 ± 0.06 % ID/g and the “Biodistribution: Spleen” value [1, 3] was 0.14 ± 0.02 % ID/g. For the same compound, the “Biodistribution: Stomach” value [1, 3] was 0.69 ± 0.18 % ID/g, the “Biodistribution: Tumor” value [1, 3] was 2.39 ± 0.24 % ID/g and the Tumor/Blood ratio [1, 3] was 32.0 ± 3.8. For the same compound, the “Tumor/kid (kidney) ratio” value [1, 3] was 1.3 ± 10.2, the “Tumor/mm (muscle) ratio” value [1, 3] was 53.0 ± 12.6 and the “Biodistribution: Bladder” value ([1]; 8 h post-injection) was 7.43 ± 7.72 % ID/g. For the same compound, the “Biodistribution: Blood” value ([1]; 8 h post-injection) was 0.13 ± 0.02 % ID/g, the “Biodistribution: Brain” value ([1]; 8 h post-injection) was 0.24 ± 0.06 % ID/g and the “Biodistribution: Fat” value ([1]; 8 h post-injection) was 0.28 ± 0.27 % ID/g. For the same compound, the “Biodistribution: Heart” value ([1]; 8 h post-injection) was 0.65 ± 0.10 % ID/g, the “Biodistribution: Kidney (kid)” value ([1]; 8 h post-injection) was 8.14 ± 1.15 % ID/g and the “Biodistribution: Liver” value ([1]; 8 h post-injection) was 0.99 ± 0.22 % ID/g. The “Biodistribution: Lung” value ([1]; 8 h post-injection) was 4.64 ± 0.58 % ID/g, the “Biodistribution: Muscle (mm)” value ([1]; 8 h post-injection) was 0.21 ± 0.05 % ID/g and the “Biodistribution: Pancreas” value ([1]; 8 h post-injection) was 0.47 ± 0.21 % ID/g. The “Biodistribution: Sm. intestine” value ([1]; 8 h post-injection) was 1.98 ± 0.14 % ID/g, the “Biodistribution: Spleen” value ([1]; 8 h post-injection) was 0.18 ± 0.02 % ID/g and the “Biodistribution: Stomach” value ([1]; 8 h post-injection) was 4.02 ± 0.53 % ID/g. The “Biodistribution: Tumor” value ([1]; 8 h post-injection) was 16.74 ± 1.58 % ID/g, the Tumor/Blood ratio ([1]; 8 h post-injection) was 129.6±18.8 and the “Tumor/kid (kidney) ratio” value ([1]; 8 h post-injection) was 2.1±0.26. For the same compound, the “Tumor/mm (muscle) ratio” value ([1]; 8 h post-injection) was 84.3±21.0, the “all other tumor-to-organ ratios tested” value ([1]; 24 h) was no less than 10.0 and the tumor-to-lung ratio ([1]; 24 h) was 4.9. The “Biodistribution: Bladder” value [1, 4] was 0.45 ± 0.50 % ID/g, the “Biodistribution: Blood” value [1, 4] was 0.01 ± 0.08 % ID/g and the “Biodistribution: Brain” value [1, 4] was 0.02 ± 0.01 % ID/g. For the same compound, the “Biodistribution: Fat” value [1, 4] was 0.01 ± 0.01 % ID/g, the “Biodistribution: Heart” value [1, 4] was 0.08 ± 0.01 % ID/g and the “Biodistribution: Kidney (kid)” value [1, 4] was 0.48 ± 0.09 % ID/g. For the same compound, the “Biodistribution: Liver” value [1, 4] was 0.42 ± 0.04 % ID/g, the “Biodistribution: Lung” value [1, 4] was 0.29 ± 0.05 % ID/g and the “Biodistribution: Muscle (mm)” value [1, 4] was 0.04 ± 0.06 % ID/g. For the same compound, the “Biodistribution: Pancreas” value [1, 4] was 0.07 ± 0.02 % ID/g, the “Biodistribution: Sm. intestine” value [1, 4] was 0.19 ± 0.05 % ID/g and the “Biodistribution: Spleen” value [1, 4] was 0.11 ± 0.04 % ID/g. For the same compound, the “Biodistribution: Stomach” value [1, 4] was 0.29 ± 0.04 % ID/g, the “Biodistribution: Tumor” value [1, 4] was 1.20 ± 0.47 % ID/g and the Tumor/Blood ratio [1, 4] was 27.1 ± 26.7. The “Tumor/kid (kidney) ratio” value [1, 4] was 2.4 ± 0.4, the “Tumor/mm (muscle) ratio” value [1, 4] was 49.0 ± 28.7 and the “Biodistribution: Bladder” value ([1]; 24 h post-injection) was 0.34 ± 0.09 % ID/g. For the same compound, the “Biodistribution: Blood” value ([1]; 24 h post-injection) was 0.00 ± 0.06 % ID/g, the “Biodistribution: Brain” value ([1]; 24 h post-injection) was 0.13 ± 0.02 % ID/g and the “Biodistribution: Fat” value ([1]; 24 h post-injection) was 0.03 ± 0.01 % ID/g. The “Biodistribution: Heart” value ([1]; 24 h post-injection) was 0.12 ± 0.03 % ID/g, the “Biodistribution: Kidney (kid)” value ([1]; 24 h post-injection) was 0.90 ± 0.12 % ID/g and the “Biodistribution: Liver” value ([1]; 24 h post-injection) was 0.38 ± 0.03 % ID/g. For the same compound, the “Biodistribution: Lung” value ([1]; 24 h post-injection) was 1.27 ± 0.38 % ID/g, the “Biodistribution: Muscle (mm)” value ([1]; 24 h post-injection) was 0.02 ± 0.01 % ID/g and the “Biodistribution: Pancreas” value ([1]; 24 h post-injection) was 0.21 ± 0.29 % ID/g. The “Biodistribution: Sm. intestine” value ([1]; 24 h post-injection) was 0.47 ± 0.03 % ID/g, the “Biodistribution: Spleen” value ([1]; 24 h post-injection) was 0.09 ± 0.01 % ID/g and the “Biodistribution: Stomach” value ([1]; 24 h post-injection) was 0.65 ± 0.04 % ID/g. For the same compound, the “Biodistribution: Tumor” value ([1]; 24 h post-injection) was 6.2 % ID/g and 6.23 ± 1.41 % ID/g, the Tumor/Blood ratio ([1]; 24 h post-injection) was 142.6 ± 115.8 and the “Tumor/kid (kidney) ratio” value ([1]; 24 h post-injection) was 7.1 and 7.1 ± 2.5. For the same compound, the “Tumor/mm (muscle) ratio” value ([1]; 24 h post-injection) was 261.3 ± 47.3, the “tumor uptake on co-injection of 200 nmole of 1” value ([1]; co-injection of 200 nmole of 1) was “blocked tumor uptake” and the “radiotracer uptake within liver (in vivo stability of NOTA-64Cu chelation)” value ([1]; within 24 h) was “no significant radiotracer uptake within liver”. For the same compound, the “PET/CT tumor imaging finding” value [2] was “radiotracer uptake in tumor as early as 1 h post-injection; also recorded: At 1 h, tumor could be observed distinctly”.
